In patent US12325697B2 (Nimbus Clio, Inc., priority 2021, dated 2025):

Legend:
[1] = biological target: Recombinant human Cbl-b (aa 36-427) (Homo sapiens (Human), UniProt Q13191); assay: Cbl-b Biochemical Assay (TR-FRET); conditions: read-out: TR-FRET hCbl-b IC50
Outline: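 IC50 from 4-parameter fit of % inhibition (DMSO max, reference-inhibitor min), duplicate ten-point series. Compound preincubated with 6 nM Cbl-b, then Src-Zap70 (1-2.5 nM)/0.5 mM ATP reaction 60 min RT; EDTA quench with labelled UBE2D2-Ub and streptavidin-terbium, 60 min, HTRF at 520 nm.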

[2] = biological target: Recombinant human c-Cbl (aa 47-435) (Homo sapiens (Human), UniProt P22681); assay: c-Cbl Biochemical Assay (TR-FRET)
Chain of Recombinant human c-Cbl (aa 47-435) (P22681 47-435): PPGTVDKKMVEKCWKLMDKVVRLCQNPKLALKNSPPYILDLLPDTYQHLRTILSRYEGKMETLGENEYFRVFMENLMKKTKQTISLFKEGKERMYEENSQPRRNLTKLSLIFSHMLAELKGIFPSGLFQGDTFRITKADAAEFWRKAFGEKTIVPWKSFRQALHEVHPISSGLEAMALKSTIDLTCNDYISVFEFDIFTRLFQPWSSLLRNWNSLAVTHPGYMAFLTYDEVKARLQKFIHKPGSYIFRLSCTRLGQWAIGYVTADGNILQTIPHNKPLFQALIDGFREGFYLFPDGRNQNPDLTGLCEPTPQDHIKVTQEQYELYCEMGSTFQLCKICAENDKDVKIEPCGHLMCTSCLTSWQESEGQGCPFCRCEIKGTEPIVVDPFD
Outline: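 TR-FRET binding of UBE2D2-Ub-Bodipy (100 nM) to biotinylated c-Cbl (aa 47-435, 6 nM) via Streptavidin-Tb, measured after c-Cbl activation by Src-Zap70 with 0.5 mM ATP (60-90 min RT, 30 min compound preincubation). Ten-point half-log dilutions, 1% DMSO; IC50 by 4-parameter fit of normalized inhibition.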

Chain of Recombinant human Cbl-b (aa 36-427) (Q13191 36-427): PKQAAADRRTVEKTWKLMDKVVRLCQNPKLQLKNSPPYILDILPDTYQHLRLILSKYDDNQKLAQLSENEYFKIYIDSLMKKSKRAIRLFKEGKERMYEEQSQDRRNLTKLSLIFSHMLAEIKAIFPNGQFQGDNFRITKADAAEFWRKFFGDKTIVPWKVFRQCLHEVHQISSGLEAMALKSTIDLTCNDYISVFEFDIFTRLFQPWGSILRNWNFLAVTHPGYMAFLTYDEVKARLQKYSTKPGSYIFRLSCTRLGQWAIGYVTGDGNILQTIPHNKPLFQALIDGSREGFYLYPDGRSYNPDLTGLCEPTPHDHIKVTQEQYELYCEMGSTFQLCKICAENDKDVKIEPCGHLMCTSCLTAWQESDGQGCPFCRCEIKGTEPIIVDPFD

Structure (SMILES) | IC50 [1] | IC50 [2]
CC[C@H](O)CNCc1ccc2c(c1)C(=O)N(c1cc(-c3ccc(C#N)cc3-c3nncn3C)cc(C3CC3)n1)C2 [AJA-2, (S)-4-(2-Cyclopropyl-6-(6-(((2-hydroxybutyl)amino)methyl)-1-oxoisoindolin-2-yl)pyridin-4-yl)-3-(4-methyl-4H-1,2,4-triazol-3-yl)benzonitrile] | ≤ 200 nM | ≤ 200 nM
CCOc1cc(-c2ccc(F)cc2-c2nncn2C)cc(N2Cc3c(OC)cc(CO)cc3C2=O)n1 [AJC-1, 2-(6-Ethoxy-4-(4-fluoro-2-(4-methyl-4H-1,2,4-triazol-3-yl)phenyl)pyridin-2-yl)-6-(hydroxymethyl)-4-methoxyisoindolin-1-one] | ≤ 200 nM | ≤ 200 nM
Cn1cnnc1-c1cc(C#N)ccc1-c1cccc(N2Cc3ccc(CO)cc3C2=O)c1 [AJD-2, 3′-(6-(Hydroxymethyl)-1-oxoisoindolin-2-yl)-2-(4-methyl-4H-1,2,4-triazol-3-yl)-[1,1′-biphenyl]-4-carbonitrile] | 1000 to 10000 nM | 1000 to 10000 nM
Cn1cnnc1-c1cc(C#N)ccc1-c1cccc(N2Cc3ccc(CNCC4CC4)cc3C2=O)c1 [AJE-2, 3′-(6-(((Cyclopropylmethyl)amino)methyl)-1-oxoisoindolin-2-yl)-2-(4-methyl-4H-1,2,4-triazol-3-yl)-[1,1′-biphenyl]-4-carbonitrile] | ≤ 200 nM | ≤ 200 nM
COCCNCc1ccc2c(c1)C(=O)N(c1cccc(-c3ccc(C#N)cc3-c3nncn3C)c1)C2 [AJF-1, 3′-(6-(((2-Methoxyethyl)amino)methyl)-1-oxoisoindolin-2-yl)-2-(4-methyl-4H-1,2,4-triazol-3-yl)-[1,1′-biphenyl]-4-carbonitrile] | ≤ 200 nM | ≤ 200 nM
COCC1(NCc2ccc3c(c2)C(=O)N(c2cc(-c4ccc(C#N)cc4-c4nncn4C)cc(C4CC4)n2)C3)CCC1 [AJG-2, 4-(2-cyclopropyl-6-(6-(((1-(methoxymethyl)cyclobutyl)amino)methyl)-1-oxoisoindolin-2-yl)pyridin-4-yl)-3-(4-methyl-4H-1,2,4-triazol-3-yl)benzonitrile] | ≤ 200 nM | ≤ 200 nM
CC(=O)c1ccc2c(c1)C(=O)N(c1cc(-c3ccc(C#N)cc3-c3nncn3C)cc(C3CC3)n1)C2 [AJH-3, 4-(2-(6-Acetyl-1-oxoisoindolin-2-yl)-6-cyclopropylpyridin-4-yl)-3-(4-methyl-4H-1,2,4-triazol-3-yl)benzonitrile] | ≤ 200 nM | ≤ 200 nM
CC(NCC1CC1)c1ccc2c(c1)C(=O)N(c1cc(-c3ccc(C#N)cc3-c3nncn3C)cc(C3CC3)n1)C2 (stereo not shown) [AJI-1, 4-(2-Cyclopropyl-6-(6-(1-((cyclopropylmethyl)amino)ethyl)-1-oxoisoindolin-2-yl)pyridin-4-yl)-3-(4-methyl-4H-1,2,4-triazol-3-yl)benzonitrile] | ≤ 200 nM | ≤ 200 nM
C[C@@H](NCC1CC1)c1ccc2c(c1)C(=O)N(c1cc(-c3ccc(C#N)cc3-c3nncn3C)cc(C3CC3)n1)C2 [AJJ-1, (R)-4-(2-Cyclopropyl-6-(6-(1-((cyclopropylmethyl)amino)ethyl)-1-oxoisoindolin-2-yl)pyridin-4-yl)-3-(4-methyl-4H-1,2,4-triazol-3-yl)benzonitrile] | ≤ 200 nM | ≤ 200 nM
C[C@H](NCC1CC1)c1ccc2c(c1)C(=O)N(c1cc(-c3ccc(C#N)cc3-c3nncn3C)cc(C3CC3)n1)C2 [AJK-1, (S)-4-(2-Cyclopropyl-6-(6-(1-((cyclopropylmethyl)amino)ethyl)-1-oxoisoindolin-2-yl)pyridin-4-yl)-3-(4-methyl-4H-1,2,4-triazol-3-yl)benzonitrile] | ≤ 200 nM | ≤ 200 nM
Cn1cnnc1-c1cc(C#N)ccc1-c1cc(C2CC2)nc(N2Cc3ccc(O)cc3C2=O)c1 [AJL-2, 4-(2-cyclopropyl-6-(6-hydroxy-1-oxoisoindolin-2-yl)pyridin-4-yl)-3-(4-methyl-4H-1,2,4-triazol-3-yl)benzonitrile] | ≤ 200 nM | ≤ 200 nM
